Measurements published in article PMC4489686 (Biochemistry, 2015).

Target: StAhpC (Salmonella typhimurium AhpC; alkyl hydroperoxide reductase C component) (Salmonella enterica, UniProt P0A251)
Assay: stopped-flow Trp fluorescence, double-exponential fit
Format: biochemical
Settings: reduced enzyme, no reductase; pH 7.0, 25 °C; peroxidatic Cys46

Sequence of StAhpC (Salmonella typhimurium AhpC; alkyl hydroperoxide reductase C component) (P0A251 2-187): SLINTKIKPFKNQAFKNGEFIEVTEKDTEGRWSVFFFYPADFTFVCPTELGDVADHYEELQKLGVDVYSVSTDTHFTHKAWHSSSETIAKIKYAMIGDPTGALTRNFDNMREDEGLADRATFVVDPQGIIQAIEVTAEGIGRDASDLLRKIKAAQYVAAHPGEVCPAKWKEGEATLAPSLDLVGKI

Structure (SMILES): CC(C)(OO)c1ccccc1 [cumene hydroperoxide]
- slope of kobs vs [ROOH], first phase: black those for cumene hydroperoxide

Structure (SMILES): CCOO [ethyl hydroperoxide]
- slope of kobs vs [ROOH], first phase: red those for ethyl hydroperoxide
